Assay results taken from ChEMBL document CHEMBL1149151, “Macrocyclization in the design of non-phosphorus-containing Grb2 SH2 domain-binding ligands” (J Med Chem, 2004).
Several values for one entry are separate records, joined by “and”; a condition that tells them apart may be missing. Identical values can stand only once.

Columns and labels:
[1] = molecular target: T1, Growth factor receptor-bound protein 2 (Homo sapiens, UniProt P62993); assay: In vitro Growth factor receptor bound protein 2-binding affinity in ELISA method
[2] = molecular target: T1, Growth factor receptor-bound protein 2; assay: In vitro Growth factor receptor bound protein 2-binding affinity in surface plasmon resonance (SPR) method
[3] = kd value surface plasmon resonance (SPR) method; format: ADME
[4] = koff value surface plasmon resonance (SPR) method; format: ADME

T1 sequence (P62993 whole entry): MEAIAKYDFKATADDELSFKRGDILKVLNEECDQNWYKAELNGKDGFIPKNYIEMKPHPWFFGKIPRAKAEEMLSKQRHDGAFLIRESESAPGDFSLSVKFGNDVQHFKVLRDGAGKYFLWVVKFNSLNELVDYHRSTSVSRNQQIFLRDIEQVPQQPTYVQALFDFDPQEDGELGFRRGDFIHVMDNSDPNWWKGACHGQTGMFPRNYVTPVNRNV

Row | SMILES | IC50 [1] [nM] | IC50 [2] | Kd [3] [nM] | Koff [4] [s⁻¹]
1 | NC(=O)C[C@H](NC(=O)C1(NC(=O)[C@H](Cc2ccc(C(C(=O)O)C(=O)O)cc2)NC(=O)C(=O)O)CCCCC1)C(=O)NCCCc1cccc2ccccc12 | 22.1 |  |  | 
2 | NC(=O)C[C@@H]1NC(=O)C2(CCCCC2)NC(=O)[C@@H](CC(=O)O)[C@@H](c2ccc(CP(=O)(O)O)cc2)/C=C/C[C@@H](Cc2cccc3ccccc23)CNC1=O |  | 1.4 nM and 12.1 nM | 0.9 | 0.0056
3 | NC(=O)C[C@H](NC(=O)C1(NC(=O)[C@H](Cc2ccc(CP(=O)(O)O)cc2)NC(=O)C(=O)O)CCCCC1)C(=O)NCCCc1cccc2ccccc12 | 10 | ~80 nM | 128 | 0.11
4 | NC(=O)C[C@@H]1NC(=O)C2(CCCCC2)NC(=O)[C@@H](CC(=O)O)[C@@H](c2ccc(C(C(=O)[O-])C(=O)[O-])cc2)/C=C/C[C@@H](Cc2cccc3ccccc23)CNC1=O.[Na+].[Na+] | 4.3 | 12.1 nM | 12.1 | 0.044
